Results reported in publication PMC8242589, “Cardiac Safety of Kinase Inhibitors – Improving Understanding and Prediction of Liabilities in Drug Discovery Using Human Stem Cell-Derived Models” (Frontiers in Cardiovascular Medicine, 2021).
pIC50: −log10 of the molar value. “Also recorded” adds a separate entry of the source. Each block holds one compound with its values, some of them ahead of it.

Assays:
[1] = tested on: hSC-CMs (Cor.4U Cardiomyocytes); assay: ATP assay (CellTiter-Glo Luminescent Cell Viability Assay); format: cell-based, human; settings: for viability at 0.03 µM / viability at 0.1 µM / viability at 0.3 µM / viability at 1 µM: Homo sapiens, Cardiomyocyte; for viability at 0.03 µM / viability at 0.1 µM / viability at 0.3 µM / viability at 1 µM / ATP: normalized to time-matched DMSO control; for Effect on ATP level, in words: hSC-CMs, up to the highest test concentrations
In short: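 Human stem-cell-derived Cor.4U cardiomyocytes (25,000–30,000/well), cultured 4 days at 37 °C, switched to serum-free BMCC medium 12 h before dosing. Cellular ATP quantified by CellTiter-Glo luminescence and normalized to time-matched DMSO controls; at least three replicates per concentration.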

[2] = tested on: hSC-CMs (Cor.4U Cardiomyocytes); assay: Apoptosis assay (CellEvent Caspase-3/7 Green, IncuCyte ZOOM kinetics over 24 h); format: cell-based, human; set-up: key to Caspase / Caspase MEAN: % of time-matched vehicle control (green object area); settings: for activity at 0.03 µM / activity at 0.1 µM / activity at 0.3 µM / activity at 1 µM: Homo sapiens, Cardiomyocyte; for activity at 0.03 µM / activity at 0.1 µM / activity at 0.3 µM / activity at 1 µM / Caspase: normalized to time-matched vehicle control; for Apoptosis (caspase-3/7 activation), result in words: monitored over 24 h
In short: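 Cor.4U cardiomyocytes were cultured 4 days at 5% CO2 and 37 °C, given a 2 h baseline, then treated with compound for 24 h. Caspase-3/7 green nuclear signal was imaged every 2 h, and total green object area per well (μm^2/well) was normalized to the time-matched vehicle control. At least three replicates were run per concentration.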

[3] = tested on: GSK-3α; settings: ref [46] (CHIR99021), [47] (SB 216763); read-out: Target IC50 GSK-3α; cited from earlier work
[4] = tested on: hSC-CMs (Cor.4U Cardiomyocytes); assay: CardioExcyte 96 impedance and EFP recording (beating rate, base impedance); format: cell-based, human; settings: for activity at 0.03 µM / activity at 0.1 µM / activity at 0.3 µM / activity at 1 µM: Homo sapiens, Cardiomyocyte; for activity at 0.03 µM / activity at 0.1 µM / activity at 0.3 µM / activity at 1 µM / BR / Base Imp: vs baseline before drug (taken as 100%)
In short: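 hSC-CM monolayers (Cor.4U), cultured 4 days at 37 °C, 5% CO2, recorded spontaneously beating; impedance sampled at 1 kHz, EFP at 10 kHz. Beating rate taken as reciprocal of inter-spike interval in EFP. Each test concentration expressed as fractional change versus pre-drug baseline (100%).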

[5] = tested on: ROCK1; settings: ref [36] (RKI-1447), [37], [38] (Fasudil), [39]–[43] (Y-27632), [44], [45] (GSK-429286); read-out: Target IC50 ROCK1; cited from earlier work
[6] = tested on: ROCK2; settings: ref [36] (RKI-1447), [37], [38] (Fasudil), [39]–[43] (Y-27632), [44], [45] (GSK-429286); read-out: Target IC50 ROCK2; cited from earlier work
[7] = 0.1 µM, 24h, read-out: Base Imp

Effect on cardiomyocyte function in 3D surface plots (beating rate, base impedance, ATP), in words ([4]; hSC-CMs, 2 and 24 h): minimal functional effect
SMILES: Cc1c[nH]c(-c2cnc(NCCNc3ccc(C#N)cn3)nc2-c2ccc(Cl)cc2Cl)n1 [CHIR99021]
viability at 0.03 µM ([1]; 2h): 87%
viability at 0.03 µM ([1]; 24h): 97%
viability at 0.1 µM ([1]; 0.1 µM, 2h): 87%
viability at 0.1 µM ([1]; 0.1 µM, 24h): 95%
viability at 0.3 µM ([1]; 2h): 93%
viability at 0.3 µM ([1]; 24h): 92%
viability at 1 µM ([1]; 1 µM, 2h): 99%
viability at 1 µM ([1]; 1 µM, 24h): 97%
Effect on ATP level, in words [1]: did not impact the ATP level
activity at 0.03 µM ([2]; 2h): 160%
activity at 0.03 µM ([2]; 24h): 109%
activity at 0.1 µM ([2]; 0.1 µM, 2h): 143%
activity at 0.1 µM ([2]; 0.1 µM, 24h): 79%
activity at 0.3 µM ([2]; 2h): 132%
activity at 0.3 µM ([2]; 24h): 80%
activity at 1 µM ([2]; 1 µM, 2h): 122%
activity at 1 µM ([2]; 1 µM, 24h): 85%
Apoptosis (caspase-3/7 activation), result in words ([2]; hSC-CMs): did not have any functionally-relevant effect
pIC50 [3]: 8.00
activity at 0.03 µM ([4]; 2h, read-out: BR): 99%
activity at 0.03 µM ([4]; 2h, read-out: Base Imp): 96%
activity at 0.03 µM ([4]; 24h, read-out: BR): 95%
activity at 0.03 µM ([4]; 24h, read-out: Base Imp): 97%
activity at 0.1 µM ([4]; 0.1 µM, 2h, read-out: BR): 93%
activity at 0.1 µM ([4]; 0.1 µM, 2h, read-out: Base Imp): 93%
activity at 0.1 µM ([4]; 0.1 µM, 24h, read-out: BR): 92%
activity at 0.1 µM [4, 7]: 97%
activity at 0.3 µM ([4]; 2h, read-out: BR): 90%
activity at 0.3 µM ([4]; 2h, read-out: Base Imp): 94%
activity at 0.3 µM ([4]; 24h, read-out: BR): 92%
activity at 0.3 µM ([4]; 24h, read-out: Base Imp): 91%
activity at 1 µM ([4]; 1 µM, 2h, read-out: BR): 84%
activity at 1 µM ([4]; 1 µM, 2h, read-out: Base Imp): 90%
activity at 1 µM ([4]; 1 µM, 24h, read-out: BR): 93%
activity at 1 µM ([4]; 1 µM, 24h, read-out: Base Imp): 88%
Effect on hSC-CMs function (base impedance and beating rate), in words ([4]; hSC-CMs, 2 and 24 h): did not produce functionally relevant changes

SMILES: CC1=C(C(=O)Nc2cc3cn[nH]c3cc2F)C(c2ccc(C(F)(F)F)cc2)CC(=O)N1 (stereo not drawn) [GSK-429286]
ATP ([1]; 0.01 µM, 2h): 101
ATP ([1]; 0.01 µM, 24h): 101
ATP ([1]; 0.1 µM, 2h): 101
ATP ([1]; 0.1 µM, 24h): 96
ATP ([1]; 1 µM, 2h): 102
ATP ([1]; 1 µM, 24h): 96
ATP ([1]; 10 µM, 2h): 104
ATP ([1]; 10 µM, 24h): 102
Caspase ([2]; 0.01 µM, 2h): 95
Caspase ([2]; 0.01 µM, 24h): 97
Caspase ([2]; 0.1 µM, 2h): 109
Caspase ([2]; 0.1 µM, 24h): 103
Caspase ([2]; 1 µM, 2h): 104
Caspase ([2]; 1 µM, 24h): 105
Caspase ([2]; 10 µM, 2h): 116
Caspase ([2]; 10 µM, 24h): 127
Apoptosis (caspase-3/7 activity) at the highest test concentration, in words ([2]; top / highest test concentration, over 24 h): marginal effects
pIC50 [5]: 7.85
pIC50 [6]: 7.20
BR ([4]; 0.01 µM, 2h): 102
Base Imp ([4]; 0.01 µM, 2h): 99
BR ([4]; 0.01 µM, 24h): 100
Base Imp ([4]; 0.01 µM, 24h): 92
BR ([4]; 0.1 µM, 2h): 102
Base Imp ([4]; 0.1 µM, 2h): 91
BR ([4]; 0.1 µM, 24h): 106
Base Imp ([4]; 0.1 µM, 24h): 85
BR ([4]; 1 µM, 2h): 105
Base Imp ([4]; 1 µM, 2h): 83
BR ([4]; 1 µM, 24h): 109
Base Imp ([4]; 1 µM, 24h): 72
BR ([4]; 10 µM, 2h): 98
Base Imp ([4]; 10 µM, 2h): 69
BR ([4]; 10 µM, 24h): 88
Base Imp ([4]; 10 µM, 24h): 58
Effect on base impedance, in words ([4]; hSC-CMs, 2 and 24 h): concentration-and time-dependent decrease in base impedance; also recorded: concentration-dependent effects

Effect on cardiomyocyte function in 3D surface plots (beating rate, base impedance, ATP), in words ([4]; hSC-CMs, 2 and 24 h): minimal functional effect
SMILES: Cn1cc(C2=C(c3ccc(Cl)cc3Cl)C(=O)NC2=O)c2ccccc21 [SB 216763]
viability at 0.03 µM ([1]; 2h): 88%
viability at 0.03 µM ([1]; 24h): 98%
viability at 0.1 µM ([1]; 0.1 µM, 2h): 88%
viability at 0.1 µM ([1]; 0.1 µM, 24h): 99%
viability at 0.3 µM ([1]; 2h): 91%
viability at 0.3 µM ([1]; 24h): 95%
viability at 1 µM ([1]; 1 µM, 2h): 97%
viability at 1 µM ([1]; 1 µM, 24h): 96%
Effect on ATP level, in words [1]: did not impact the ATP level
activity at 0.03 µM ([2]; 2h): 143%
activity at 0.03 µM ([2]; 24h): 92%
activity at 0.1 µM ([2]; 0.1 µM, 2h): 174%
activity at 0.1 µM ([2]; 0.1 µM, 24h): 132%
activity at 0.3 µM ([2]; 2h): 256%
activity at 0.3 µM ([2]; 24h): 265%
activity at 1 µM ([2]; 1 µM, 2h): 326%
activity at 1 µM ([2]; 1 µM, 24h): 352%
Time to plateau of caspase-3/7 activation ([2]; hSC-CMs): within the first hour
Apoptosis (caspase-3/7 activation), result in words ([2]; hSC-CMs): quickly induced a concentration-dependent caspase−3/7 activation
pIC50 [3]: 7.47
activity at 0.03 µM ([4]; 2h, read-out: BR): 98%
activity at 0.03 µM ([4]; 2h, read-out: Base Imp): 109%
activity at 0.03 µM ([4]; 24h, read-out: BR): 91%
activity at 0.03 µM ([4]; 24h, read-out: Base Imp): 108%
activity at 0.1 µM ([4]; 0.1 µM, 2h, read-out: BR): 88%
activity at 0.1 µM ([4]; 0.1 µM, 2h, read-out: Base Imp): 107%
activity at 0.1 µM ([4]; 0.1 µM, 24h, read-out: BR): 94%
activity at 0.1 µM [4, 7]: 107%
activity at 0.3 µM ([4]; 2h, read-out: BR): 97%
activity at 0.3 µM ([4]; 2h, read-out: Base Imp): 106%
activity at 0.3 µM ([4]; 24h, read-out: BR): 94%
activity at 0.3 µM ([4]; 24h, read-out: Base Imp): 102%
activity at 1 µM ([4]; 1 µM, 2h, read-out: BR): 85%
activity at 1 µM ([4]; 1 µM, 2h, read-out: Base Imp): 102%
activity at 1 µM ([4]; 1 µM, 24h, read-out: BR): 93%
activity at 1 µM ([4]; 1 µM, 24h, read-out: Base Imp): 105%
Effect on hSC-CMs function (base impedance and beating rate), in words ([4]; hSC-CMs, 2 and 24 h): did not produce functionally relevant changes
